Reference: ChEMBL document CHEMBL4376890, “Unique Sulfur-Aromatic Interactions Contribute to the Binding of Potent Imidazothiazole Indoleamine 2,3-Dioxygenase Inhibitors” (J Med Chem, 2020)

Key:
[1] = molecular target: T1, Indoleamine 2,3-dioxygenase 1 (Homo sapiens, UniProt P14902); assay: Inhibition of recombinant full-length N-terminal His-tagged human IDO1 (1 to 403 residues) expressed in Escherichia coli BL21(DE3) cells
[2] = molecular target: T1, Indoleamine 2,3-dioxygenase 1; assay: Inhibition of human […] by HTS assay

T1 sequence (P14902 whole entry, the tested form may be a part): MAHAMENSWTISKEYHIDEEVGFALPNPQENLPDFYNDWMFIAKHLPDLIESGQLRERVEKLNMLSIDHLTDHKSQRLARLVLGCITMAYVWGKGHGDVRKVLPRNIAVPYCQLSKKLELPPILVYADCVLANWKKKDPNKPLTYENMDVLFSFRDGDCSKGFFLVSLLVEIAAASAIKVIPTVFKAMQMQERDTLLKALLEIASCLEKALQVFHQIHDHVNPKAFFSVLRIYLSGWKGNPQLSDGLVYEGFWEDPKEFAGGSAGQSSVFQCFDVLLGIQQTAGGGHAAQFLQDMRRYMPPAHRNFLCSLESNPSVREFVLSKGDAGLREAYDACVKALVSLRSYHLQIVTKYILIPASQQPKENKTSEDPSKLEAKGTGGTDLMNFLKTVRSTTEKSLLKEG

SMILES	IC50 [1] [nM]	IC50 [2] [nM]
OC(c1cnc2scc(-c3ccc(Br)cc3)n12)C1CCCCC1 (configuration not stated)	1280	–
CCCCNC(=S)NCc1cnc2scc(C#CC3CC3)n12	502	–
N#Cc1ccc(NC(=O)NCc2cnc3scc(C#Cc4ccc(Cl)s4)n23)cc1	823	–
OC(c1cnc2scc(C#CC3CC3)n12)C1CCCCC1 (configuration not stated)	7150	–
Cc1ccc(CS(=O)(=O)NCc2cnc3scc(-c4ccc(Br)cc4)n23)cc1	855	–
OC(c1ccccc1)c1cnc2scc(-c3ccc(Br)cc3)n12 (configuration not stated)	1090	–
O=C(CSc1nnc2scc(C3CCCCC3)n12)c1ccc(Br)cc1	> 10000	–
N#Cc1ccc(NC(=O)NCc2cnc3scc(C#Cc4cccnc4)n23)cc1	3200	–
CCCS(=O)(=O)NCc1cnc2scc(-c3ccc(Br)cc3)n12	1070	–
Brc1ccc(-c2csc3nccn23)cc1	380	–
N#Cc1ccc(NC(=O)NCc2cnc3scc(C#CC4CCCC4)n23)cc1	418	–
O=S(=O)(Cc1cccc(Cl)c1)NCc1cnc2scc(-c3ccc(Br)cc3)n12	744	–
Cc1sc2nccn2c1-c1ccc(Br)cc1	3110	–
O=C(CSc1nnc2scc(-c3ccccc3)n12)Nc1ccc(Cl)cc1	–	1190
O=C(CSc1nnc2scc(-c3ccc(Br)cc3)n12)c1ccc(Br)cc1	> 10000	–

More lines, in order of falling IC50 [1], values ahead:

IC50 [1] [nM]	IC50 [2] [nM]	SMILES
339	–	O=C(CSc1nnc2scc(-c3ccc(Cl)cc3)n12)c1ccc(Br)cc1
256	–	CC(C)CSc1nnc2scc(-c3ccc(Cl)cc3)n12
102	–	N#Cc1ccc(NC(=O)NCc2cnc3scc(C#CC4CC4)n23)cc1
73.9	–	N#Cc1ccc(NC(=O)NCc2cnc3scc(C#Cc4ccsc4)n23)cc1
42	–	O=C(NCc1cnc2scc(C#CC3CC3)n12)Nc1cccc(Cl)c1
27.6	–	S=C(NCc1cnc2scc(C#CC3CC3)n12)Nc1cccc(Cl)c1
16.4	–	N#Cc1ccc(NC(=S)NCc2cnc3scc(C#CC4CC4)n23)cc1
